Experiments:
[1] = test system: CAL-51; test: normalised response (% of control), CellTiter-Glo; higher = more viable cells (100 = DMSO, 0 = benzethonium chloride kill control); conditions: incubation time: 72 h
Summary of the method: (§1)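 Breast cancer cell lines (20 µl suspension) were seeded into 384-well plates holding compound at 5 concentrations in 10-fold steps over a compound-specific 10,000-fold range, then incubated 72 h. CellTox Green fluorescence (485/520 nm) was read first, then CellTiter-Glo luminescence after 10 min at room temperature. Each plate was normalised to 0.1 % DMSO (100) and a positive kill control (0). Each value is the normalised signal at a single concentration of the series.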

[2] = test system: CAL-148; test: as above; conditions: incubation time: 72 h
Summary of the method: as §1

[3] = test system: SK-BR-3; test: as above; conditions: incubation time: 72 h
Summary of the method: as §1

[4] = test system: Hs578T; test: as above; conditions: incubation time: 72 h
Summary of the method: as §1

[5] = test system: BT-549; test: as above; conditions: incubation time: 72 h
Summary of the method: as §1

[6] = test system: CAL-120; test: as above; conditions: incubation time: 72 h
Summary of the method: as §1

[7] = test system: MDA-MB-468; test: as above; conditions: incubation time: 72 h
Summary of the method: as §1

[8] = test system: HCC1143; test: as above; conditions: incubation time: 72 h
Summary of the method: as §1

[9] = test system: MDA-MB-453; test: as above; conditions: incubation time: 72 h
Summary of the method: as §1

[10] = test system: CAL-85-1; test: as above; conditions: incubation time: 72 h
Summary of the method: as §1

[11] = test system: HCC1599; test: as above; conditions: incubation time: 72 h
Summary of the method: as §1

[12] = test system: MDA-MB-436; test: as above; conditions: incubation time: 72 h
Summary of the method: as §1

[13] = test system: HCC1937; conditions: 72 h
Summary of the method: (§2)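 Breast cancer cell lines in 20 µl suspension were seeded onto 384-well plates that already held compound dissolved in 5 µl medium and were incubated for 72 h. Viability was measured by adding 2.5 µl CellTiter-Blue for 2 h at 37 °C and reading fluorescence at 560/590 nm. Each plate was normalised to vehicle and a positive kill control and checked by Z'-factor. EC50 was taken from a fitted percent-inhibition dose-response curve, censored at the highest concentration, and rows with a drug sensitivity score of zero were removed.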

[14] = test system: SK-BR-3; conditions: 72 h
Summary of the method: as §2

[15] = test system: Hs578T; conditions: 72 h
Summary of the method: as §2

[16] = test system: BT-549; conditions: 72 h
Summary of the method: as §2

[17] = test system: CAL-120; conditions: 72 h
Summary of the method: as §2

[18] = test system: MDA-MB-468; conditions: 72 h
Summary of the method: as §2

[19] = test system: HCC1143; conditions: 72 h
Summary of the method: as §2

[20] = test system: MFM-223; conditions: 72 h
Summary of the method: as §2

[21] = test system: MDA-MB-231; conditions: 72 h
Summary of the method: as §2

[22] = test system: HCC1599; conditions: 72 h
Summary of the method: as §2

[23] = test system: BT-474; conditions: 72 h
Summary of the method: as §2

[24] = test system: MDA-MB-436; conditions: 72 h
Summary of the method: as §2

[25] = test system: CAL-85-1; test: normalised response (% of control), CellTiter-Glo; higher = more viable cells (100 = DMSO, 0 = benzethonium chloride kill control); conditions: incubation time: 72 h; remark: listed apart in the source
Summary of the method: as §1

Row | EC50, CellTiter-Blue viability [13] | EC50, CellTiter-Blue viability [14] | EC50, CellTiter-Blue viability [16] | EC50, CellTiter-Blue viability [18] | EC50, CellTiter-Blue viability [19] | EC50, CellTiter-Blue viability [21] | EC50, CellTiter-Blue viability [22] | EC50, CellTiter-Blue viability [23] | EC50, CellTiter-Blue viability [24] | Structure (SMILES) | normalised response [1] | normalised response [2] | normalised response [3] | normalised response [4] | normalised response [5] | normalised response [6] | normalised response [7] | normalised response [8] | normalised response [9] | normalised response [10] | normalised response [11] | normalised response [12] | EC50, CellTiter-Blue viability [15] | EC50, CellTiter-Blue viability [17] | EC50, CellTiter-Blue viability [20] | normalised response [25]
1 | – | – | – | – | – | – | – | – | – | COC1=C2C[C@@H](C)C[C@H](OC)[C@H](O)[C@@H](C)/C=C(\C)[C@H](OC(N)=O)[C@@H](OC)/C=C\C=C(/C)C(=O)NC(=CC1=O)C2=O [Geldanamycin] (1000 nM) | 96.2% | 106% | 87.1% | 103% | 81.2% | 102% | 104% | 102% | 96.6% | 92.7% | 99.6% | 64.4% | – | – | – | –
2 | – | – | – | – | – | – | – | – | – | Cn1cnc2c(F)c(Nc3ccc(Br)cc3F)c(C(=O)NOCCO)cc21 [MEK-162] (100 nM) | 104% | 91.1% | 101% | 86.2% | 100% | 94% | 94.7% | 90.5% | 104% | 99.2% | 104% | 100% | – | – | – | –
3 | – | – | – | – | – | – | – | – | – | CCOc1cc2ncc(C#N)c(Nc3ccc(OCc4ccccn4)c(Cl)c3)c2cc1NC(=O)/C=C/CN(C)C [Neratinib] (100 nM) | 112% | 83.4% | 25% | 103% | 97.5% | 99% | 82.8% | 98.8% | 68% | 67.9% | 102% | 95% | – | – | – | –
4 | – | – | – | – | – | – | – | – | – | COc1ccc(C2=N[C@@H](c3ccc(Cl)cc3)[C@@H](c3ccc(Cl)cc3)N2C(=O)N2CCNC(=O)C2)c(OC(C)C)c1 [Nutlin-3] (1000 nM) | 83.9% | 101% | 109% | 106% | 100% | 93.6% | 99.9% | 99.8% | 102% | 96.8% | 117% | 110% | – | – | – | –
5 | 22.4 nM | 38.1 nM | 192 nM | 105 nM | 171 nM | 73.2 nM | 678 nM | 124 nM | 99.1 nM | COC1=CC(c2cc3ccccc3[nH]2)=N/C1=C\c1[nH]c(C)cc1C [Obatoclax] | – | – | – | – | – | – | – | – | – | – | – | – | 162 nM | 25.9 nM | 1010 nM | –
6 | – | – | – | – | – | – | – | – | – | COC1=CC(c2cc3ccccc3[nH]2)=N/C1=C\c1[nH]c(C)cc1C [Obatoclax] (1000 nM) | 99.5% | 81.5% | 87% | 91.7% | 77.3% | 94.2% | 83% | 87.4% | 96.3% | 76.6% | 97.1% | 89.7% | – | – | – | –
7 | – | – | – | – | – | – | – | – | – | CC(=O)O[C@H]1C(=O)[C@@]2(C)[C@H]([C@H](OC(=O)c3ccccc3)[C@]3(O)C[C@H](OC(=O)[C@H](O)[C@@H](NC(=O)c4ccccc4)c4ccccc4)C(C)=C1C3(C)C)[C@]1(OC(C)=O)CO[C@@H]1C[C@@H]2O [Paclitaxel] (100 nM) | 29.3% | 39.6% | 10.2% | 11.4% | 15% | 47.7% | 21.7% | 30.7% | 57.5% | 20.9% | 36.2% | 28.1% | – | – | – | –
8 | – | – | 259 nM | – | – | – | 878 nM | – | – | CC(C)(C)c1cc(NC(=O)Nc2ccc(-c3cn4c(n3)sc3cc(OCCN5CCOCC5)ccc34)cc2)no1 [Quizartinib] | – | – | – | – | – | – | – | – | – | – | – | – | – | – | – | –
9 | – | – | – | – | – | – | – | – | – | CC(C)(C)c1cc(NC(=O)Nc2ccc(-c3cn4c(n3)sc3cc(OCCN5CCOCC5)ccc34)cc2)no1 [Quizartinib] (100 nM) | 107% | 100% | 105% | 98.5% | 106% | 106% | 113% | 105% | 104% | 102% | 111% | 111% | – | – | – | –
10 | – | – | 1030 nM | – | – | 1040 nM | – | – | – | COc1cc(Nc2ncc(F)c(Nc3ccc4c(n3)NC(=O)C(C)(C)O4)n2)cc(OC)c1OC [R406] | – | – | – | – | – | – | – | – | – | – | – | – | – | – | – | –
11 | – | – | – | – | – | – | – | – | – | O=C(c1ccc(OCCN2CCCCC2)cc1)c1c(-c2ccc(O)cc2)sc2cc(O)ccc12 [Raloxifene] (1000 nM) | 121% | 103% | 105% | 107% | 102% | 96.3% | 92.6% | 110% | 103% | 94.4% | 99.8% | 103% | – | – | – | –
12 | – | – | – | – | – | – | – | – | – | Cn1c(=O)c(F)c(Nc2ccc(I)cc2F)c2c(=O)n(C[C@@H](O)CO)cnc21 [TAK-733] (100 nM) | 64.6% | 90.4% | 117% | 96.5% | 91.6% | 76.7% | 79.6% | 93.5% | 123% | 69.8% | 93% | 97.1% | – | – | – | –
13 | – | – | – | – | – | – | – | – | – | CCS(=O)(=O)c1cccc(-c2cc(C(=O)NC3CCN(C)CC3)c(C)c3[nH]c4ncc(C)cc4c23)c1 [TAK-901] (100 nM) | 82.4% | 45.6% | 106% | 98.2% | 82% | 81.5% | 38.5% | 77.2% | 160% | 103% | 109% | 97.2% | – | – | – | –
14 | – | – | – | – | – | – | – | – | – | CCCC(CCC)C(=O)O [Valproic acid] (10000 nM) | – | – | – | – | – | – | – | – | – | – | – | – | – | – | – | 100%

Source: the supplement of paper PMC4862054
